Measurements published in the supplement of paper PMC7285287.
Where a name gives a salt, the structure may show the parent alone. ± gives the standard deviation of the averaged measurements.

Tested on: Candida albicans SNY425 biofilm
Test: biofilm OD600 relative to DMSO control (fraction of DMSO control); higher = more biofilm (less inhibition)
Method: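 C. albicans SNY425 biofilm optical density assays (OD600 of the adhered biofilm after media removal) in RPMI-MOPS pH 7.0 at 37 °C with shaking. Groups of 4 to 8 wells per compound are averaged and normalised to the average of DMSO loading control wells. Adherence inhibition was tested at 10 and 40 µM, sustained inhibition and disruption at 40 µM, and the MBIC series at 200 to 0.78 µM.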

[1] = 0.78 µM, assay detail: sustained inhibition (MBIC series), 384-well, compound during adherence and 24 h growth
[2] = 3.125 µM, assay detail: sustained inhibition (MBIC series), 384-well, compound during adherence and 24 h growth
[3] = 10 µM, assay detail: adherence inhibition, 96-well, compound during 90 min adherence only
[4] = 12.5 µM, assay detail: sustained inhibition (MBIC series), 384-well, compound during adherence and 24 h growth
[5] = 40 µM, assay detail: adherence inhibition, 96-well, compound during 90 min adherence only
[6] = 40 µM, assay detail: disruption, 384-well, compound added to 24 h mature biofilm for further 24 h
[7] = 40 µM, assay detail: sustained inhibition, 384-well, compound during adherence and 24 h growth
[8] = 50 µM, assay detail: sustained inhibition (MBIC series), 384-well, compound during adherence and 24 h growth
[9] = 200 µM, assay detail: sustained inhibition (MBIC series), 384-well, compound during adherence and 24 h growth

SMILES	biofilm OD600 [1]	biofilm OD600 [2]	biofilm OD600 [3]	biofilm OD600 [4]	biofilm OD600 [5]	biofilm OD600 [6]	biofilm OD600 [7]	biofilm OD600 [8]	biofilm OD600 [9]
CC(C)N1CCN(c2ccc(OCC3COC(Cn4cncn4)(c4ccc(Cl)cc4Cl)O3)cc2)CC1 (configuration not stated) [terconazole]	0.77	0.76	0.387	0.728	0.269	0.9787 ± 0.008	0.55 ± 0.032	0.568	0.403
CN(C)CCC(c1ccc(Cl)cc1)c1ccccn1 (configuration not stated) [chlorpheniramine maleate]	–	–	1.02	–	0.894	1 ± 0.044	1.01 ± 0.026	–	–
O=c1[nH]c(=O)n([C@H]2C[C@H](O)[C@@H](CO)O2)cc1F [floxuridine]	–	–	1.02	–	0.967	0.969 ± 0.017	0.927 ± 0.025	–	–
C=CC1=C(C)c2cc3[nH]c(cc4nc(cc5[nH]c(cc1n2)c(C)c5CCC(=O)O)C(CCC(=O)O)=C4C)c(C)c3C=C [protoporphyrin ix]	–	–	1.04	–	0.941	1.21 ± 0.082	1.65 ± 0.22	–	–
Fc1ccc([C@@H]2CCNC[C@H]2COc2ccc3c(c2)OCO3)cc1 [paroxetine hydrochloride]	1.02	1.05	0.932	0.95	0.926	0.9497 ± 0.0011	0.509 ± 0.05	0.62	0.565
Clc1ccc(C(Cn2ccnc2)OCc2ccsc2Cl)c(Cl)c1 (configuration not stated) [tioconazole]	0.768	0.714	0.341	0.675	0.284	0.8317 ± 0.0059	0.473 ± 0.032	0.491	0.312
Cc1cc2c(s1)Nc1ccccc1N=C2N1CCN(C)CC1 [olanzapine]	–	–	0.943	–	0.921	0.999 ± 0.027	0.974 ± 0.04	–	–
Cc1cccc(Nc2ccccc2C(=O)O)c1C [mefenamic acid]	1.02	1.01	0.973	0.958	0.93	0.875 ± 0.038	0.905 ± 0.011	0.875	0.714
Cc1cnc(C(=O)O)c[n+]1[O-] [acipimox]	–	–	0.823	–	0.56	0.997 ± 0.034	0.992 ± 0.029	–	–
O=C1CN(/N=C/c2ccc([N+](=O)[O-])o2)C(=O)N1 [nitrofurantoin]	–	–	1.08	–	1.04	0.999 ± 0.035	0.999 ± 0.011	–	–
O=C(O)c1cccnc1 [niacin]	–	–	0.913	–	0.91	1.016 ± 0.002	0.967 ± 0.024	–	–
CC(C)[C@H](N)C(=O)OCCOCn1cnc2c(=O)nc(N)[nH]c21 [valacyclovir hydrochloride]	–	–	1.1	–	0.844	1 ± 0.024	0.982 ± 0.047	–	–
N[C@H](Cc1ccccc1)C(=O)O [d-phenylalanine]	–	–	1	–	1.01	0.973 ± 0.034	0.994 ± 0.06	–	–
COCCCOc1ccnc(C[S+]([O-])c2nc3ccccc3[nH]2)c1C (configuration not stated) [rabeprazole sodium]	0.998	1.1	1.06	1.08	0.914	0.936 ± 0.049	1 ± 0.022	1.01	0.747
Cc1c(NC(=O)c2cccnc2)c(=O)n(-c2ccccc2)n1C [nifenazone]	–	–	0.927	–	0.919	1.004 ± 0.0086	0.968 ± 0.065	–	–
C[C@]12C=CC(=O)C=C1CC[C@H]1[C@@H]3C[C@@H](O)[C@](O)(C(=O)CO)[C@@]3(C)C[C@H](O)[C@@]12F [triamcinolone]	–	–	1	–	0.879	1.03 ± 0.034	1 ± 0.014	–	–
Oc1c(Cl)cc(Cl)c2cccnc12 [chloroxine]	1.03	1.03	0.788	0.926	0.373	0.907 ± 0.031	0.28 ± 0.019	0.333	0.268
CCCCCCOC(=O)NC(=N)c1ccc(NCc2nc3cc(C(=O)N(CCC(=O)OCC)c4ccccn4)ccc3n2C)cc1 [dabigatran etexilate mesylate]	0.9	0.9	1.05	0.92	0.776	0.971 ± 0.031	0.894 ± 0.046	0.843	0.628
CC1OC1P(=O)(O)O (configuration not stated) [fosphomycin]	–	–	0.972	–	1.04	1.01 ± 0.019	0.982 ± 0.011	–	–
CCN(CC)C(=S)SSC(=S)N(CC)CC [disulfiram]	0.958	1	0.991	1	0.857	0.999 ± 0.012	0.76 ± 0.084	0.764	0.417
N[C@@H](Cc1cc(I)c(Oc2ccc(O)c(I)c2)c(I)c1)C(=O)O [liothyronine sodium]	–	–	1.14	–	1.15	0.989 ± 0.05	0.96 ± 0.021	–	–
CCOC(=O)[C@H](CCc1ccccc1)N[C@@H](C)C(=O)N1Cc2ccccc2C[C@H]1C(=O)O [quinapril hydrochloride]	–	–	1.07	–	0.946	1 ± 0.022	1.01 ± 0.033	–	–
O=C([O-])C(O)[C@H](O)[C@@H](O)[C@H](O)[C@H](O)CO.O=C([O-])C(O)[C@H](O)[C@@H](O)[C@H](O)[C@H](O)CO.[Ca+2] (some centres not stated) [calcium gluceptate]	0.996	1.09	0.997	1.02	0.955	0.941 ± 0.037	0.955 ± 0.022	1.02	0.823
NC(=O)C(c1ccccc1)(c1ccccc1)[C@@H]1CCN(CCc2ccc3c(c2)CCO3)C1 [darifenacin hydrobromide]	–	–	1.04	–	0.916	1 ± 0.018	1.05 ± 0.046	–	–
COc1ccc(-c2cc(=O)c3c(O)cc(O[C@@H]4O[C@H](CO[C@@H]5O[C@@H](C)[C@H](O)[C@@H](O)[C@H]5O)[C@@H](O)[C@H](O)[C@H]4O)cc3o2)cc1O [diosmin]	–	–	1	–	0.962	1.09 ± 0.14	1.07 ± 0.059	–	–
COCCOC(=O)C1=C(C)NC(C)=C(C(=O)OC(C)C)C1c1cccc([N+](=O)[O-])c1 (configuration not stated) [nimodipine]	1.07	1.06	0.942	1.01	0.821	0.91 ± 0.029	0.984 ± 0.043	0.987	1.27
Nc1ccc(S(=O)(=O)Nc2ccnn2-c2ccccc2)cc1 [Sulfaphenazole]	–	–	0.962	–	0.934	1.01 ± 0.017	1.01 ± 0.03	–	–
Cn1c(=O)c2c(ncn2CC(O)CO)n(C)c1=O (configuration not stated) [dyphylline]	–	–	0.909	–	0.872	1.02 ± 0.046	1.02 ± 0.047	–	–
